Converted amounts (≈) assume the structure as drawn. Like-named read-outs stand apart in the source and are kept apart here. Marks after values point to notes of the source that are not given here.
How the values were obtained:
[1] = test system: Staphylococcus aureus ATCC43300 (MRSA); experiment: MIC, MRSA ATCC43300 (CO-ADD protocol); format: cell-based; conditions: for MIC: Staphylococcus aureus, read-out: MIC (µg/mL) MRSA
From the text: Additional antimicrobial evaluation against Staphylococcus aureus MRSA (ATCC43300), Pseudomonas aeruginosa (ATCC27853), Escherichia coli (ATCC25922), Klebsiella pneumoniae (ATCC700603), Acinetobacter baumannii (ATCC19606), Candida albicans (ATCC90028), and Cryptococcus neoformans (ATCC208821) was undertaken at the Community for Open Antimicrobial Drug Discovery at The University of Queensland (Australia) according to their standard protocols. For antimicrobial assays, the tested strains were cultured in either Luria broth (LB) (In Vitro Technologies, USB75852, Noble Park North, Australia), nutrient broth (NB) (Becton Dickson, 234000, Macquarie Park, Australia), or cation-adjusted MHB at 37 °C overnight. A sample of culture was then diluted 40-fold in fresh MHB and incubated at 37 °C for 1.5−2 h. The compounds were serially diluted 2-fold across the wells of 96-well plates (Corning 3641, Tewksbury, MA, USA, nonbinding surface), with compound concentrations ranging from 0.015 to 64 μg/mL, plated in duplicate. The resultant mid log phase cultures were diluted to the final concentration of 1 × 10^6 CFU/mL; then, 50 μL was added to each well of the compound containing plates giving a final compound concentration range of 0.008 to 32 μg/mL and a cell density of 5 × 10^5 CFU/mL. All plates were then covered and incubated at 37 °C for 18 h. Resazurin was added at 0.001% final concentration to each well and incubated for 2 h before MICs were read by eye.
(§1) Colistin and vancomycin were used as positive bacterial inhibitor standards for Gram-negative and Gram-positive bacteria, respectively. Fluconazole was used as a positive fungal inhibitor standard for C. albicans and C. neoformans. The antibiotics were provided in 4 concentrations, with 2 above and 2 below its MIC value, and plated into the first 8 wells of column 23 of the 384-well NBS plates. The quality control (QC) of the assays was determined by the antimicrobial controls and the Z′-factor (using positive and negative controls).

[2] = test system: Cryptococcus neoformans ATCC208821; experiment: Antifungal MIC, C. neoformans; format: cell-based; conditions: Cryptococcus neoformans ATCC208821; mean (n = 2)
Description: For the antifungal assay, fungi strains were cultured for 3 days on yeast extract-peptone dextrose (YPD) agar at 30 °C. A yeast suspension of 1 × 10^6 to 5 × 10^6 CFU/mL was prepared from five colonies. These stock suspensions were diluted with yeast nitrogen base (YNB) (Becton Dickinson, 233520) broth to a final concentration of 2.5 × 10^3 CFU/mL. The compounds were serially diluted 2-fold across the wells of 96-well plates (Corning 3641, nonbinding surface), with compound concentrations ranging from 0.015 to 64 μg/mL and final volumes of 50 μL, plated in duplicate. Then, 50 μL of the fungi suspension that was previously prepared in YNB broth to the final concentration of 2.5 × 10^3 CFU/mL was added to each well of the compound-containing plates, giving a final compound concentration range of 0.008 to 32 μg/mL. Plates were covered and incubated at 35 °C for 36 h without shaking. C. albicans MICs were determined by measuring the absorbance at OD530. For C. neoformans, resazurin was added at 0.006% final concentration to each well and incubated for a further 3 h before MICs were determined by measuring the absorbance at OD570–600.
as §1

[3] = HEK293 cytotoxicity assay (resazurin); format: cell-based, human; conditions: human; for CC50 at 20 h: concentration at 50% cytotoxicity on HEK293 cells, mean (n = 2)
Description: For the HEK293 cytotoxicity assay, cells were counted manually in a Neubauer hemocytometer and plated at a density of 5000 cells/well into each well of the 384-well plates containing the 25× (2 μL) concentrated compounds. The medium used was Dulbecco’s modified eagle medium (DMEM) supplemented with 10% fetal bovine serum (FBS). Cells were incubated together with the compounds for 20 h at 37 °C, 5% CO2. To measure cytotoxicity, 5 μL (equals 100 μM final) of resazurin was added to each well after incubation, and incubated for further 3 h at 37 °C with 5% CO2. After final incubation fluorescence intensity was measured as Fex 560/10 nm, em 590/10 nm (F560/590) using a Tecan M1000 Pro monochromator plate reader. CC50 values (concentration at 50% cytotoxicity) were calculated by normalizing the fluorescence readout, with 74 μg/mL tamoxifen as negative control (0%) and normal cell growth as positive control (100%). The concentration-dependent percentage cytotoxicity was fitted to a dose response function (using Pipeline Pilot) and CC50 values determined.

[4] = test system: Staphylococcus aureus ATCC25923; experiment: MIC by broth dilution, S. aureus ATCC25923; format: cell-based; conditions: Staphylococcus aureus ATCC25923; mean (n = 3)
Description: The susceptibility of S. aureus (ATCC25923) to antibiotics and compounds was determined in microplates using the standard broth dilution method in accordance with the recommendations of the Comité de l’AntibioGramme de la Société Française de Microbiologie (CA-SFM) as previously described. Briefly, the minimal inhibitory concentrations (MICs) were determined with an inoculum of 10^5 CFU in 200 µL of Mueller-Hinton broth (MHB) containing two-fold serial dilutions of each drug. […] To determine all MICs, the measurements were independently repeated in triplicate.

[5] = test system: human red blood cells; experiment: Hemolytic assay; format: cell-based; conditions: concentration at 10% hemolytic activity on human red blood cells; mean (n = 2)
Description: Human whole blood was washed three times with 3 volumes of 0.9% NaCl and then resuspended in same to a concentration of 0.5 × 10^8 cells/mL, as determined by manual cell count in a Neubauer hemocytometer. The washed cells were then added to the 384-well compound-containing plates for a final volume of 50 μL. After a 10 min shake on a plate shaker the plates were then incubated for 1 h at 37 °C. After incubation, the plates were centrifuged at 1000 g for 10 min to pellet cells and debris, 25 μL of the supernatant was then transferred to a polystyrene 384-well assay plate. Hemolysis was determined by measuring the supernatant absorbance at […] (OD405). The absorbance was measured using a Tecan M1000 Pro monochromator plate reader. HC10 and HC50 (concentration at 10% and 50% hemolysis, respectively) were calculated by curve fitting the inhibition values vs. log(concentration) using a sigmoidal dose–response function with variable fitting values for top, bottom and slope.

[6] = Staphylococcus aureus ATCC43300 (MRSA), mean (n = 2)

| SMILES | MIC [1, 6] [µg/mL] | melting point [°C] | MIC [2] [µg/mL] | CC50 at 20 h [3] [µg/mL] | MIC [4] [µg/mL] | HC10 [5] [µg/mL] | IC50 at 20 h ([3]; HEK293 cells, positive control) [µg/mL] | anti-MRSA activity (in words) ([1]; result in words) | MIC [1] [µg/mL] | HC10 (µg/mL) [5] |
| --- | --- | --- | --- | --- | --- | --- | --- | --- | --- | --- |
| c1ccc(CCn2cncc2-c2c[nH]c3ccccc23)cc1 [Compound 1, 3-(1-Phenethyl-1H-imidazol-5-yl)-1H-indole] | 16 (≈ 55.7 µM) | 69 to 70 | > 32 | 19.3 (≈ 67.2 µM) | > 200 | >32 | – | – | – | – |
| CC/C(=C(\c1ccccc1)c1ccc(OCCN(C)C)cc1)c1ccccc1 [Tamoxifen, reference compound] | – | – | – | – | – | – | 9 (≈ 24.2 µM) | – | – | – |
| Brc1ccc2c(-c3cncn3CCc3ccc4c(c3)OCO4)c[nH]c2c1 [Compound 42, 3-(1-(2-(Benzo[d][1,3]dioxol-5-yl)ethyl)-1H-imidazol-5-yl)-6-bromo-1H-indole] | 16 (≈ 39 µM) | 194 to 195 | 32 (≈ 78 µM) | 16.1 (≈ 39.2 µM) | 12.5 (≈ 30.5 µM) | >32 | – | – | – | – |
| COc1ccc(Cn2cncc2-c2c[nH]c3ccccc23)cc1 [Compound 11, 3-(1-(4-Methoxybenzyl)-1H-imidazol-5-yl)-1H-indole] | 32 (≈ 105 µM) | 159 to 160 | > 32 | 25.6 (≈ 84.4 µM) | > 200 | >32 | – | – | – | – |
| Brc1ccc2[nH]cc(-c3cncn3Cc3ccc(I)cc3)c2c1 [Compound 9, 5-Bromo-3-(1-(4-iodobenzyl)-1H-imidazol-5-yl)-1H-indole] | 16 (≈ 33.5 µM) | > 200 | 16 (≈ 33.5 µM) | 5.1 (≈ 10.7 µM) | > 200 | >32 | – | – | – | – |
| COc1ccc(OC)c(CCn2cncc2-c2c[nH]c3ccccc23)c1 [Compound 29, 3-(1-(2,5-Dimethoxyphenethyl)-1H-imidazol-5-yl)-1H-indole] | 32 (≈ 92.1 µM) | – | > 32 | 11.5 (≈ 33.1 µM) | > 200 | >32 | – | – | – | – |
| COc1ccc(CCn2cncc2-c2c[nH]c3cc(F)ccc23)cc1 [Compound 25, 6-Fluoro-3-(1-(4-methoxyphenethyl)-1H-imidazol-5-yl)-1H-indole] | 16 (≈ 47.7 µM) | – | > 32 | 27 (≈ 80.5 µM) | 100 (≈ 298 µM) | >32 | – | – | – | – |
| Fc1ccc2[nH]cc(-c3cncn3CCc3ccccc3)c2c1 [Compound 3, 5-Fluoro-3-(1-phenethyl-1H-imidazol-5-yl)-1H-indole] | – | 127 to 130 | – | – | – | – | – | devoid of activity | – | – |
| COc1ccc(Cn2cncc2-c2c[nH]c3cc(Br)ccc23)cc1 [Compound 17, 6-Bromo-3-(1-(4-methoxybenzyl)-1H-imidazol-5-yl)-1H-indole] | 32 (≈ 83.7 µM) | 188 to 189 | 32 (≈ 83.7 µM) | 11.1 (≈ 29 µM) | 25 (≈ 65.4 µM) | >32 | – | – | – | – |
| COc1ccc(CCn2cncc2-c2c[nH]c3ccc(Br)cc23)cc1 [Compound 27, 5-Bromo-3-(1-(4-methoxyphenethyl)-1H-imidazol-5-yl)-1H-indole] | 8 (≈ 20.2 µM) | 157 to 158 | > 32 | 16 (≈ 40.4 µM) | 12.5 (≈ 31.5 µM) | >32 | – | – | – | – |
| Clc1ccc2[nH]cc(-c3cncn3CCc3ccccc3)c2c1 [Compound 19, 5-Chloro-3-(1-phenethyl-1H-imidazol-5-yl)-1H-indole] | 16 (≈ 49.7 µM) | > 200 | > 32 | 17.3 (≈ 53.8 µM) | 12.5 (≈ 38.8 µM) | >32 | – | – | – | – |
| COc1ccc(OC)c(CCn2cncc2-c2c[nH]c3ccc(Br)cc23)c1 [Compound 34, 5-Bromo-3(1-(2,5-dimethoxyphenethyl)-1H-imidazol-5-yl)-1H-indole] | 16 (≈ 37.5 µM) | 141 to 142 | > 32 | 6.2 (≈ 14.5 µM) | 25 (≈ 58.6 µM) | >32 | – | – | – | – |
| Brc1ccc2c(-c3cncn3CCc3ccccc3)c[nH]c2c1 [Compound 22, 6-Bromo-3-(1-phenethyl-1H-imidazol-5-yl)-1H-indole] | 16 (≈ 43.7 µM) | – | 32 (≈ 87.4 µM) | 12.7 (≈ 34.7 µM) | 12.5 (≈ 34.1 µM) | >32 | – | – | – | – |
| CN[C@H](CC(C)C)C(=O)N[C@H]1C(=O)N[C@@H](CC(N)=O)C(=O)N[C@H]2C(=O)N[C@H]3C(=O)N[C@H](C(=O)N[C@H](C(=O)O)c4cc(O)cc(O)c4-c4cc3ccc4O)[C@H](O)c3ccc(c(Cl)c3)Oc3cc2cc(c3O[C@@H]2O[C@H](CO)[C@@H](O)[C@H](O)[C@H]2O[C@H]2C[C@](C)(N)[C@H](O)[C@H](C)O2)Oc2ccc(cc2Cl)[C@H]1O [vancomycin, reference compound] | – | – | – | – | – | – | – | – | 1 (≈ 0.69 µM) | – |
| Fc1ccc2c(-c3cncn3CCc3ccccc3)c[nH]c2c1 [Compound 18, 6-Fluoro-3-(1-phenethyl-1H-imidazol-5-yl)-1H-indole] | 32 (≈ 105 µM) | – | > 32 | 16.3 (≈ 53.4 µM) | 25 (≈ 81.9 µM) | – | – | – | – | >32^c µg/mL |
